Data from patent publication US7728128B2, “Dibenzo[c,h][1,5]naphthyridines and their use as DNA probes” (Institut National de la Sante et de la Recherche Medicate …, priority 2006, dated 2010).
Values after ≈ are worked out from the molar mass of the structure shown.

Key:
human fibroblasts = assay: in vivo nuclear fluorescence of human fibroblasts incubated with the molecules, scored in the microscope; assay type: cell-based; design: key: Weak: Staining was defined as “weak”, “moderate” or “strong” based on the nuclear signal/background ratio.; Moderate: Staining was defined as “weak”, “moderate” or “strong” based on the nuclear signal/background ratio.; Strong: Staining was defined as “weak”, “moderate” or “strong” based on the nuclear signal/background ratio; conditions: 10 μM, 10-60 min (up to 24 hours); Alexa488/FITC filter
Method: In this study, three different types of cells were used: Xenopus epithelial cell line XL177 (Miller, L. et al., 1977, In Vitro, 13, 557-563) stably transformed with a YFP-α-tubulin expressing construct (pEYFP-Tub, Clontech), mouse fibroblasts, and primary human skin fibroblasts. XL177 cells were grown at 20° C. in 60% Leibowitz-15 medium, supplemented with antibiotics, 10% fetal calf serum (FCS) and 10 mM HEPES, pH 7.2 with addition of 0.7 mg/ml G418. Cells were plated into glass-bottom 96-well plates (Greiner, Germany) and left to spread for 24 hours before being incubated in the presence of the test compounds from the Curie-CNRS small molecule library (at 25 or 50 μM final concentration) for another 20-24 hours. Mouse and human fibroblasts were grown in DMEM with antibiotics and 10% FCS at 37° C. in the presence of 5% CO2. The cells were observed using a Zeiss Axiovert 200M microscope with a 40× oil immersion objective and a standard Alexa488/FITC filter (Omega, XF100-2; Ex475AF40/Em535AF45/Dichroic505). Subsequent experiments were carried out using smaller concentrations of compound I and incubation times as described in the text and figures legends. For the in vivo tests of compound I-like compounds, the molecules were added to cell culture medium at 10 μM final concentration and incubated with cells 10-60 min (up to 24 hours) prior to scoring.
(§1) To get a further insight into how the structural properties of compound I contribute to its binding to DNA, the inventors analysed fourteen structural analogues present in the compound library. Although several of these compounds are fluorescent in vivo, this property went undetected in the initial screen most likely due to the latency period before the appearance of the signal (see below). To evaluate the activity of compound I-like molecules three tests were used: (1) in vivo, the inventors incubated human fibroblasts in the presence of the molecules and scored nuclear fluorescence in the microscope; (2 and 3) in vitro, the inventors looked at the absorption and fluorescence of free molecules before and after addition of plasmid DNA. […] With the exception of compound I and analogues 8 and 12, accurate in vitro measurement of the fluorescence intensities was impossible because the emission peaks for the free molecules were too close to that for the DNA-bound dye. This affected the height of the dye/DNA peaks.

plasmid DNA = assay: fluorescence of free molecules before and after addition of plasmid DNA; assay type: physicochemical; design: Fluorescence maxima free dye / Fluorescence maxima DNA bound dye: unit not given beside the values
Method: (§2) Plasmid dsDNA was purified using a Qiagen Maxiprep kit and used in the supercoiled form for absorption and fluorescence studies. E. coli total RNA was bought from Ambion, dA/dT and dG/dC homopolymers were purchased from Amersham Biosciences. Calf thymus (CT) high-molecular weight DNA and Hoechst 33258 were obtained from Sigma-Aldrich. Ethidium bromide was purchased from Amresco.
(§3) Spectrometry and fluorimetry were performed using a SpectraMax384 (Molecular Devices) and a Luminescence Spectrometer LS50B (Perkin Elmer). Fluorescence emission of compound I in complex with DNA and RNA was measured in 50 mM Na phosphate buffer, pH 7.2 at room temperature. Before use, total E. coli RNA was heated to 100° C. for 1 min and immediately transferred on ice for 5 min before mixing with compound I solution. All measurements were carried out at room temperature (20-23° C.) in solutions protected from light and incubated for ˜10-15 min after dilution. The units of b/dye and bp/dye are defined as moles of RNA bases or DNA base pairs per mole of dye. Quantum yield was measured using quinine sulphate as standard as described in (Iupac Commission on Photochemistry, EPA Newsletter of November 1986, 21-29) using FLUOROMAX-3 Spex Spectrofluorometer (HORIBA) and UVIKON XL Spectrophotometer (SECOMAM).
Although compound I also stains mitotic chromosomes (FIG. 1D), theoretically it was possible that it binds specifically to DNA-associated proteins (for example histones) rather than to nucleic acids. To resolve this issue, the absorption and emission spectra of free compound I before and after addition of dsDNA were recorded. […] Molar extinction coefficient (EC) of free compound I at 391 nm was measured at 10,800 cm^−1 M^−1. In the presence of ds plasmid DNA the absorption peaks of compound I at 373 and 391 nm decreased, and a new peak appears with a maximum at 435 nm (FIG. 1E). An overlay of the absorption spectra in complex with dsDNA at different bp per dye ratios gives a single isosbestic point at 398 nm. Free compound I fluoresces around 438 nm (the exact position of the peak depends on the excitation wavelength). […] At the same time, a new peak evolves with a maximum around 484 nm (FIG. 1F). The exact maximum of fluorescence of compound I/DNA complexes varies insignificantly as a function of the dye/bp ratio and/or base pairs composition of the nucleic acids. […] The quantum yield for compound I (excited at 435 nm) at 5 μM in 50 mM Na-phosphate, pH 7.2, was determined to be 2.7% for free dye and 13.8% in admixture with 50 μM CT DNA.
as §1

CT DNA = assay: quantum yield, free dye and in admixture with CT DNA; assay type: physicochemical, calf
Method: as §3
Although compound I also stains mitotic chromosomes (FIG. 1D), theoretically it was possible that it binds specifically to DNA-associated proteins (for example histones) rather than to nucleic acids. To resolve this issue, the absorption and emission spectra of free compound I before and after addition of dsDNA were recorded. […] Molar extinction coefficient (EC) of free compound I at 391 nm was measured at 10,800 cm^−1 M^−1. […]

[1] = test system: dA/dT and dG/dC homopolymers; assay: fluorescence and absorption with dA/dT and dG/dC homopolymers; assay type: binding
Method: as §2, §3
Many intercalating dyes and minor groove-binding DNA dyes can interact differently with dA/dT or dG/dC DNA tracts. […] To investigate the properties of compound I when bound to different DNA tracts, the inventors examined its fluorescence in admixture with an excess of plasmid DNA and either dA/dT or dG/dC homopolymers. […] The peak at 484 nm was much more pronounced when plasmid DNA was replaced by the dA/dT homopolymers (see also FIG. 1F). […] In FIG. 3C, the graphs show emission spectra upon excitation at 371 nm to allow plotting the emission of free compound I. Similar results were obtained when exciting DNA/compound I complexes at 391 and 435 nm.

solubility in DMSO = assay type: physicochemical; conditions: organic solvent or mixture, free base, read-out: solubility (saturation)
Method: Solubility of compound I: In DMSO, compound I (free base) is soluble until saturation at ˜7 mM. As much as 1 volume of 7 mM, compound I in DMSO mixed with 7 volumes of H2O forms a turbid solution (0.875 mM compound I in ˜12% DMSO). Upon sonication for 1 min, this solution becomes limpid and can be further dissolved in aqueous solutions.

emission maximum of new peak upon DNA binding (plasmid DNA; DNA-bound): around 484 nm | hypsochromic shift of the 438 nm emission peak upon DNA binding (plasmid DNA; DNA-bound): 426 nm | Fluorescence maxima DNA bound dye (plasmid DNA; after addition of plasmid DNA): 484 | emission peak of free dye (plasmid DNA; free compound): around 438 nm | Fluorescence maxima free dye (plasmid DNA; free molecule, before addition of plasmid DNA): 438 | emission maximum (plasmid DNA; plasmid DNA at bp/dye ratio 40): 472 nm | quantum yield (CT DNA; free dye, 5 μM, 50 mM Na-phosphate pH 7.2, excited at 435 nm): 2.7% | quantum yield (CT DNA; in admixture with 50 μM CT DNA, 5 μM dye, excited at 435 nm): 13.8% | emission maximum ([1]; dA/dT homopolymers at bp/dye ratio 40): 484 nm | solubility (solubility in DMSO): ~7 mM (≈ 2830 µg/mL)
SMILES: COc1ccc2c(c1)c(C)nc1c3ccc(OC)cc3c(NCCCN(C)C)nc21 [Compound I, N′-(2,8-dimethoxy-12-methyl-dibenzo[c,h][1,5]naphthyridin-6-yl)-N,N-dimethyl-propane-1,3-diamine]
Images of the in vivo nuclear staining (human fibroblasts): Strong | reduction of fluorescence peak at 438 nm with dG/dC homopolymer ([1]; 1 μM dye, homopolymer at 40 μM): 12.7 fold | fluorescence at 484 nm with dG/dC homopolymer, lower compared to dA/dT ([1]; 1 μM dye, homopolymers at 40 μM): 9.5 fold | difference in fluorescence bound to dA/dT and dG/dC homopolymers ([1]; dye/bp ratio 8, 5 μM dye, emission 484 nm, excitation 435 nm): 23 fold | absorption at 435 nm, dG/dC superior to dA/dT ([1]; higher bp/dye ratios): ~30%
